Results as given in US20130085133A1, “ANTI-VIRAL TREATMENT AND ASSAY TO SCREENFOR ANTI-VIRAL AGENT” (Sourthern Research Institute Office of Commercialization …, priority 2010, published 2013).
Like-named read-outs stand apart in the source and are kept apart here.

How the values were obtained:
[1] = tested on: respiratory syncytial virus (RSV) strain Long; experiment: microbe, parasite or virus in culture; conditions: human respiratory syncytial virus, HEp-2, 144 h
in vitro = conditions: human
Experimental: (§1) Test compounds were evaluated by measuring their antiviral activity, cell toxicity, and selectivity. Test compounds were serially diluted in a plate to plate matrix or “stacked plate” matrix. All 320 compounds in a source plate were diluted together resulting in a 10 point dose response dilution series. It was visualized as a serial dilution series proceeding vertically through a stack of plates with the high dose plate on top and the low dose plate on the bottom.
(§2) Following the six day incubation period, the assay plates were equilibrated to room temperature for 30 min and an equal volume (30 μL) of Cell Titer-Glo reagent (Promega Inc.) was added to each well using a WellMate (Matrix, Hudson, N.H.) and plates were incubated for an additional 10 min at room temperature. At the end of the incubation, luminescence was measured using a Perkin Elmer Envision™ multi-label reader (PerkinElmer, Wellesley, Mass.) with an integration time of 0.1 s.
(§3) Data was analyzed using ActivityBase software (IDBS, Inc, Guilford, UK). thirty two control wells containing cells only and twenty four wells containing cells and virus were included on each assay plate and used to calculate Z′ value for each plate and to normalize the data on a per plate basis. […] Eight ribavirin positive control wells were included on each plate for quality control purposes, but were not used in Z′ calculations. […] In the toxicity assay, results are described as percent viability and the calculation is the same.
(§4) An EC50 (for CPE inhibition) and IC50 (for cell viability) were calculated for each substance using the 4 parameter Levenburg-Marquardt algorithm with parameter A locked at 0 and parameter B locked at 100. Standard deviation, normalized chi2 and hill slope were used to evaluate the curves. Values were not extrapolated beyond the tested range of concentrations.

[2] = tested on: respiratory syncytial virus (RSV) strain Long; conditions: EC50 for CPE inhibition, HEp-2 cells, six days, tested range 25 ug/mL to 0.048 ug/mL (Chembridge), 50 uM to 0.097 uM (Enamine, SRI Proprietary)
HEp-2 cells = experiment: cytotoxicity assay (percent viability of HEp-2 cells, Cell Titer-Glo); conditions: cell viability of HEp-2 cells (text: IC50), top concentration 25 ug/mL (Chembridge), 50 uM (Enamine, SRI Proprietary)
Experimental: as §1, §2, §3, §4

RSV, Long strain = experiment: virus titer Reduction (VTR) assay, progeny virus TCID50 in HEp-2 cells; assay type: cell-based, respiratory syncytial virus (RSV); conditions: log reduction in progeny virus titer; for TCID-50 Reduction @ 3 ug/ml: 3 ug/ml compound; for TCID-50 Reduction 6 @ ug/ml: 6 ug/ml compound; for TCID-50 Reduction 12 @ ug/ml: 12 ug/ml compound; for TCID-50 Reduction 25 @ ug/ml: 25 ug/ml compound
Experimental: Four concentrations of each compound were evaluated (Table 3). Briefly, the four concentrations of test compounds, HEp-2 cells (8×10^3 per well) and RSV, Long strain (MOI=0.9) were plated in 96 well microtiter plates. The plates were incubated for 48 hours. Fifteen (15) μl of 10-fold serial dilution of progeny virus containing medium from respective samples (test compound treated or untreated) was transferred to infect fresh HEp-2 cells (2×10^3 cells per well) in a 384 well format. Plates were incubated for an additional 6 days and luminescence was measured using Cell Titer-Glo reagent (Promega Inc.) to determine cell viability. […] A well showing lesser than 50% cell viability was regarded as positive for virus infection. Four replicates for each virus dilution were analyzed and the number of virus positive wells (out of 4) was plotted versus the dilution. TCID50 was calculated to be the dilution that produced two positive wells out of four using ActivityBase software (IDBS, Inc, Guilford, UK).

O=S(=O)(c1cc(Cl)c(O)c(Cl)c1)c1cc(Cl)c(O)c(Cl)c1 [AB00275543]
EC50 [1]: 16.2 µg/mL | CC50 at 6 days (in vitro): > 25 µg/mL

Cc1ccc2[nH]c3c(c2c1)CN(C)CC3 [AB00275559]
EC50 ([2]; unit not given): 6.29 | CC50 (HEp-2 cells; unit not given): >25.00 | TCID-50 Reduction @ 3 ug/ml (RSV, Long strain): 1.00 | TCID-50 Reduction 6 @ ug/ml (RSV, Long strain): 1.93 | TCID-50 Reduction 12 @ ug/ml (RSV, Long strain): 2.21 | TCID-50 Reduction 25 @ ug/ml (RSV, Long strain): 1.93

COc1c2ccoc2nc2c(OC)cccc12 [AB00276394]
EC50 [1]: 15.2 µg/mL | CC50 (in vitro): > 25 µg/mL

CCN(CC)C(=O)C1CCCc2c1[nH]c1ccc(Cl)cc21 (stereo not drawn) [AB00279132]
EC50 ([2]; unit not given): 1.92 | CC50 (HEp-2 cells; unit not given): >25.00 | TCID-50 Reduction @ 3 ug/ml (RSV, Long strain): 1.00 | TCID-50 Reduction 6 @ ug/ml (RSV, Long strain): 3.63 | TCID-50 Reduction 12 @ ug/ml (RSV, Long strain): 4.22 | TCID-50 Reduction 25 @ ug/ml (RSV, Long strain): 3.83

CCC(Sc1nnc2c3ccccc3n(CCc3ccccc3)c2n1)C(=O)Nc1ccc(S(N)(=O)=O)cc1 (stereo not drawn) [AB00287440]
EC50 ([2]; unit not given): 17.84 | CC50 (HEp-2 cells; unit not given): >25.00

N#CCCCSc1nnnn1-c1cccc(Cl)c1 [AB00287736]
EC50 ([2]; unit not given): 16.16 | CC50 (HEp-2 cells; unit not given): >25.00

Cc1[nH]c2ccccc2c1-c1csc(-c2ccncc2)n1 [AB00291074]
EC50 ([2]; unit not given): 20.59 | CC50 (HEp-2 cells; unit not given): >25.00

COc1cc(OC)c(OC)cc1C=Nn1c(S)nnc1-c1ccc(C(C)(C)C)cc1 [AB00291789]
EC50 ([2]; unit not given): 10.96 | CC50 (HEp-2 cells; unit not given): >25.00

COc1ccc(-c2cn3cccnc3n2)cc1F [AB00292655]
EC50 ([2]; unit not given): 10.88 | CC50 (HEp-2 cells; unit not given): >25.00

N#CCCN1CCN(C(=S)c2ccc(-c3cccc(Cl)c3)o2)CC1 [AB00294368]
EC50 [1]: 15 µg/mL | CC50 (in vitro): > 25 µg/mL

C=CCn1c(SCc2ccc(OC)c([N+](=O)[O-])c2)nnc1-c1cccc(Br)c1 [AB00294809]
EC50 ([2]; unit not given): 20.29 | CC50 (HEp-2 cells; unit not given): >25.00

Fc1ccc(-c2cc(C(F)(F)F)n[nH]2)cc1 [AB00294826]
EC50 ([2]; unit not given): 16.73 | CC50 (HEp-2 cells; unit not given): >25.00

CC(=O)Nc1ccc(Nc2ncnc3sc4c(c23)CCCC4)cc1 [AB00296051]
EC50 ([2]; unit not given): 16.70 | CC50 (HEp-2 cells; unit not given): >25.00

Cc1cccc(-n2c(Cc3cccc([N+](=O)[O-])c3)nc3ccccc3c2=O)c1 [AB00297463]
EC50 [1]: 16.3 µg/mL | CC50 at 6 days (in vitro): > 25 µg/mL

O=Cc1cn(CC(=O)N2CCc3ccccc3C2)c2ccc(Br)cc12 [AB00302396]
EC50 [1]: 23.8 µg/mL | CC50 (in vitro): > 25 µg/mL

S=C(c1c[nH]c2ccc(Br)cc12)N1CCOCC1 [AB00303357]
EC50 ([2]; unit not given): 21.92 | CC50 (HEp-2 cells; unit not given): >25.00

O=C(Nc1ccc2[nH]c(-c3ccccc3)nc2c1)c1ccccc1 [AB00308659]
EC50 ([2]; unit not given): 8.66 | CC50 (HEp-2 cells; unit not given): >25.00 | TCID-50 Reduction @ 3 ug/ml (RSV, Long strain): 2.82 | TCID-50 Reduction 6 @ ug/ml (RSV, Long strain): 3.64 | TCID-50 Reduction 12 @ ug/ml (RSV, Long strain): 6.43 | TCID-50 Reduction 25 @ ug/ml (RSV, Long strain): 6.40

O=C(O)CCNc1nc(Cc2ccccc2)nc2sc3c(c12)CCCC3 [AB00308859]
EC50 ([2]; unit not given): 20.48 | CC50 (HEp-2 cells; unit not given): >25.00

COc1cc(N2CCCC2)c(OC)cc1C=C(C#N)c1nc2ccccc2[nH]1 [AB00321587]
EC50 ([2]; unit not given): 9.15 | CC50 (HEp-2 cells; unit not given): >25.00

Cc1cc(C=C(C#N)c2nc3ccccc3[nH]2)c(C)n1-c1ccccn1 [AB00342188]
EC50 ([2]; unit not given): 13.11 | CC50 (HEp-2 cells; unit not given): >25.00

Cc1ccc(-c2nc3ccccc3[nH]2)cc1NC(=O)c1ccc2c(c1)OCO2 [AB00348716]
EC50 ([2]; unit not given): 17.26 | CC50 (HEp-2 cells; unit not given): >25.00

CCCOc1ccc(-c2n[nH]c(SCc3ccc(C(=O)OC)o3)n2)cc1 [AB00356597]
EC50 ([2]; unit not given): 11.59 | CC50 (HEp-2 cells; unit not given): >25.00

Brc1cc2nc[nH]c2c2ccccc12 [AB00358081]
EC50 ([2]; unit not given): 12.07 | CC50 (HEp-2 cells; unit not given): >25.00

COc1ccc2[nH]c(C(C#N)=Cc3cc4c(cc3Cl)OCO4)nc2c1 [AB00364575]
EC50 ([2]; unit not given): 17.76 | CC50 (HEp-2 cells; unit not given): >25.00

C=CCN1C(=O)C2(C(C#N)=C(N)Oc3ccccc32)C(C(C)=O)=C1C (stereo not drawn) [AB00364858]
EC50 [1]: 21.2 µg/mL | CC50 at 6 days (in vitro): > 25 µg/mL

O=C(Nc1ccc(OC(F)(F)F)cc1)c1ccc2[nH]cnc2c1 [AB00368222]
EC50 ([2]; unit not given): 12.26 | CC50 (HEp-2 cells; unit not given): >25.00

CNC(=S)NNC(=O)COc1ccccc1C [AB00370002]
EC50 [1]: 22 µg/mL | CC50 (in vitro): > 25 µg/mL

Cc1ccc2[nH]c(-c3sc4nc(C)ccc4c3N)nc2c1 [AB00372475]
EC50 ([2]; unit not given): 21.04 | CC50 (HEp-2 cells; unit not given): >25.00

O=c1c(F)cn(Cc2ccc([N+](=O)[O-])cc2)c(=O)n1Cc1ccc([N+](=O)[O-])cc1 [AB00373945]
EC50 [1]: 13.3 µM | CC50 (in vitro): > 50 µM

Nc1ccc2c(c1)Cc1ccccc1-2 [AB00374695]
EC50 [1]: 46.8 µM | CC50 (in vitro): > 50 µM

O=S(=O)(O)c1ccc2c(c1)C1=NC/2=N\c2c3cc(S(=O)(=O)O)ccc3c3[n]2[Cu][n]2/c(c4ccc(S(=O)(=O)O)cc4/c2=N/C2=NC(=N\3)/c3cc(S(=O)(=O)O)ccc32)=N\1 [AB00514356]
CC50 (in vitro): > 50 µM

CCOC(=O)c1ccc(-n2c(C)cc(C=C(C#N)c3nc4ccccc4[nH]3)c2C)cc1 [AB00709376]
EC50 ([2]; unit inferred): 10.8 µM | CC50 (HEp-2 cells; unit inferred): > 50 µM

CC(N)=C(C#N)C(=O)CN1C(=O)NC(Cc2c[nH]c3ccccc23)C1=O (stereo not drawn) [AB00722846]
EC50 ([2]; unit inferred): 1.74 µM | CC50 (HEp-2 cells; unit inferred): > 50 µM

CC(=O)c1ccc(NC(=O)C(Cc2c[nH]c3ccccc23)NC(=O)c2cccs2)cc1 (stereo not drawn) [AB00776619]
EC50 ([2]; unit inferred): 27.3 µM | CC50 (HEp-2 cells; unit inferred): > 50 µM

CC1CCc2[nH]c3ccc(C(=O)OCC(=O)C(C)(C)C)cc3c2C1 (stereo not drawn) [AB00796257]
EC50 ([2]; unit inferred): 24.8 µM | CC50 (HEp-2 cells; unit inferred): > 50 µM

CC(=O)Nc1ccc(NC(=O)c2ccc3[nH]c4c(c3c2)CC(C)CC4)cc1 (stereo not drawn) [AB00804772]
EC50 ([2]; unit inferred): 43.4 µM | CC50 (HEp-2 cells; unit inferred): > 50 µM

Cc1sc(NC(=O)Cc2ccccc2)c(C(=O)O)c1C [AB00877398]
EC50 ([2]; unit inferred): 40.1 µM | CC50 (HEp-2 cells; unit inferred): > 50 µM

COc1ccccc1/C=N/NC(=N)N[N+](=O)[O-] [SRI-101]
EC50 [1]: 35.7 µM | CC50 (in vitro): > 50 µM
